Counter-ions that a name gives are not always drawn.
What was measured:
MerTK [1] = target: T1, MerTK (Mus musculus, UniProt Q60805); assay: MerTK degradation in RAW264 cells (Western blot); assay type: cell-based; conditions: RAW264.7, 0.001-1 μM, 4 hour-incubation at 37° C., read-out: RAW264 Max % MerTK Degradation
T1 construct: endogenous in cells; host or cells: RAW264 cells
T1 sequence (Q60805 19-994): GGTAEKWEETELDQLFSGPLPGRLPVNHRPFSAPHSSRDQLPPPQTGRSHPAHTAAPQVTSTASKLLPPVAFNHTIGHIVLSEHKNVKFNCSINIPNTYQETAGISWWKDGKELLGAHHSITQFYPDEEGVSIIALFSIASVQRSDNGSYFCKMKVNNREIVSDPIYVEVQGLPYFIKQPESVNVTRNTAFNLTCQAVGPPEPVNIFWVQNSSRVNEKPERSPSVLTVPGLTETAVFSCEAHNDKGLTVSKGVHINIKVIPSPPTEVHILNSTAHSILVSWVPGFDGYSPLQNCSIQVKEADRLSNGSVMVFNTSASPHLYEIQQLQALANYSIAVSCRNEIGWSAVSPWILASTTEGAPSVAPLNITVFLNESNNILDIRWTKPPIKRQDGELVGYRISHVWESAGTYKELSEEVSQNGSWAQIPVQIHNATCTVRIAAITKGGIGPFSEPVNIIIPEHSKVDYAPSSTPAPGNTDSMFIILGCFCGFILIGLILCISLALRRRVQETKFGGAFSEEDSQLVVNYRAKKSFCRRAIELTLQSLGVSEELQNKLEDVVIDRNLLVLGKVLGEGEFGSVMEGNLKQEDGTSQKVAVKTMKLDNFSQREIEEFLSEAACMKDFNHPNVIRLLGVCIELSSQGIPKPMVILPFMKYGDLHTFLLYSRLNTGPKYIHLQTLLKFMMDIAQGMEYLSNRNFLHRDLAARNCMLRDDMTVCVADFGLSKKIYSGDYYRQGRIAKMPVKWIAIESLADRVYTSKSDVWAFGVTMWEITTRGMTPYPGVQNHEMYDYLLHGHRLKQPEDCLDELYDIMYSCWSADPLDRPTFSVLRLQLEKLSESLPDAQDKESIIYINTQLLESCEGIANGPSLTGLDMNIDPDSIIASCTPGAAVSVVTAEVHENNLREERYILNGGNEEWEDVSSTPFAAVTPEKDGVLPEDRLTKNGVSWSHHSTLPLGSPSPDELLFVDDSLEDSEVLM
Description: Compounds were reconstituted in DMSO to make 10 mM stock solutions. RAW264 cells were maintained in DMEM medium containing 10% FBS. Cells were seeded into 6-well plates with 2×10^6 cells per well. 2 μL of diluted compounds were added to cells to the final concentration of 0.001-1 μM. After a 4 hour-incubation at 37° C., cells were washed with DPBS (1×) once. Then RIPA lysis buffer with Halt Protease and Phosphatase Inhibitor Cocktail was added directly to the cells and cells were then incubated on ice for 10 min, then lysate was harvested into 1.5 mL Eppendorf tubes and centrifuged at 14,000 rpm for 10 min at 4° C. and the supernatants were collected for Western blots.
The protein concentration of cell lysates was quantified with Pierce™ BCA Protein Assay Kit. […] BCA working reagents were prepared by mixing BCA reagent A with reagent B in 50: 1 ratio. 200 μL of the BCA working reagents were added to 25 μL of BCA standard or cell lysates in microplate, and mixed thoroughly on a plate shaker for 30 seconds. After incubation at 37° C. for 30 min, the absorbance of samples at 562 nm were measured with EnVision Plate Reader.
Protein lysates were prepared in NuPAGE™ LDS sample buffer and NuPAGE™ sample reducing agent, and incubated at 95° C. for 5 min. […] The proteins were transferred to low fluorescence PVDF membranes using the Trans-Blot Turbo Transfer System. Membranes were then blocked in Odyssey blocking buffer at RT for 1 h followed by primary incubation at 4° C. overnight. The primary antibodies were MerTK goat polyclonal antibody and actin mouse monoclonal antibody. Membranes were washed three times with TBST (1×), and then incubated with IR Dye 800 CW Donkey anti-goat and IR Dye 700 CW Goat anti-mouse secondary antibodies in 1:10,000 dilution at RT for 1 h. The Western blot images were obtained using Odyssey Imaging System.

MerTK [2] = target: T2, MerTK (Homo sapiens, UniProt Q12866); assay: MerTk degradation in Jurkat cells (Western blot); assay type: cell-based; conditions: Jurkat, 4 h, 0.001-1 μM, 4 hour-incubation at 37° C., read-out: Jurkat Max % MerTK Degradation
T2 construct: endogenous in cells; host or cells: Jurkat cells
T2 sequence (Q12866 21-999): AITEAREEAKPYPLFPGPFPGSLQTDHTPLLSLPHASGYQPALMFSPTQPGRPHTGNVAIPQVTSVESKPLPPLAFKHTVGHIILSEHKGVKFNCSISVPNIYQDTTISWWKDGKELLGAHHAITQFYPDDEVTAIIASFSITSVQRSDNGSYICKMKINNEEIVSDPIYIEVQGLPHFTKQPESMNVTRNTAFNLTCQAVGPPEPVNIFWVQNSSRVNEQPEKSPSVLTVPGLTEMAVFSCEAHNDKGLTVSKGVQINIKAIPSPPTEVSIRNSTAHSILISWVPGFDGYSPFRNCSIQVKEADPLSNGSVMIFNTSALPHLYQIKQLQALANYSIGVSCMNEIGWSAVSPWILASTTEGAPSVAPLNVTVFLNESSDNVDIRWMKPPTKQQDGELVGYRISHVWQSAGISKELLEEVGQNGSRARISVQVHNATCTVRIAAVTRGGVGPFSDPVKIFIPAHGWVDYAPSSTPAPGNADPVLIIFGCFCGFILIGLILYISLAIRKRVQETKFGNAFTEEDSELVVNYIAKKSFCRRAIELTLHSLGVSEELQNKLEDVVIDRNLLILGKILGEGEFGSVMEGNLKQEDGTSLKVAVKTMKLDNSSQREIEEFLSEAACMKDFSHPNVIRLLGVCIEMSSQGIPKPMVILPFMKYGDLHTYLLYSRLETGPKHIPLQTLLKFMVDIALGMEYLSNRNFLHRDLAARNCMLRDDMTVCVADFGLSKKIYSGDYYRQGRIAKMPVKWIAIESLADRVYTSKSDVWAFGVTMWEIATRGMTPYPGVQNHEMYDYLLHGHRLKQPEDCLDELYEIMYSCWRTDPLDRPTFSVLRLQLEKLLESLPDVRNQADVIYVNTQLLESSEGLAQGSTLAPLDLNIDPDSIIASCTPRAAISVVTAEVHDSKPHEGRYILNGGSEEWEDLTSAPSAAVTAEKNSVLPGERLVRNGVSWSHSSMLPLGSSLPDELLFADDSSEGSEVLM
Summary of the method: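 MerTK degradation was read by near-infrared Western blot, normalized to actin, in BCA-quantified lysates of Jurkat cells exposed to 0.001-1 μM compound for 4 h at 37 °C.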

| Compound | Dmax (MerTK [1]) [%] | Dmax (MerTK [2]) [%] |
| --- | --- | --- |
| CCCCNc1ncc2c(-c3ccc(S(=O)(=O)N4CCN(C(=O)CCCCCCCCCCC(=O)N[C@H](C(=O)N5C[C@H](O)C[C@H]5C(=O)NCc5ccc(-c6scnc6C)cc5)C(C)(C)C)CC4)cc3)nn([C@H]3CC[C@H](O)CC3)c2n1 [I-27, (2S,4R)-1-((S)-2-(12-(4-((4-(6-(Butylamino)-1-(trans-4-hydroxycyclohexyl)-1H-pyrazolo[3,4-d]pyrimidin-3-yl)phenyl)sulfonyl)piperazin-1-yl)-12-oxododecanamido)-3,3-dimethylbutanoyl)-4-hydroxy-N-(4-(4-methylthiazol-5-yl)benzyl)pyrrolidine-2-carboxamide] | > 50 | > 50 |
| CCCCNc1ncc2c(-c3ccc(S(=O)(=O)N4CCN(C(=O)CCCCCCCCCCNC(=O)COc5cccc6c5C(=O)N(C5CCC(=O)NC5=O)C6=O)CC4)cc3)nn([C@H]3CC[C@H](O)CC3)c2n1 (stereo partly drawn) [I-28, N-(11-(4-((4-(6-(Butylamino)-1-(trans-4-hydroxycyclohexyl)-1H-pyrazolo[3,4-d]pyrimidin-3-yl)phenyl)sulfonyl)piperazin-1-yl)-11-oxoundecyl)-2-((2-(2,6-dioxopiperidin-3-yl)-1,3-dioxoisoindolin-4-yl)oxy)acetamide] | > 50 | > 50 |
| CCCCNc1ncc2c(-c3ccc(S(=O)(=O)N4CCN(C(=O)NCCCOCCCOCCCc5cccc6c5n(C)c(=O)n6C5CCC(=O)NC5=O)CC4)cc3)nn([C@H]3CC[C@H](O)CC3)c2n1 (stereo partly drawn) [I-29, 4-((4-(6-(Butylamino)-1-(trans-4-hydroxycyclohexyl)-1H-pyrazolo[3,4-d]pyrimidin-3-yl)phenyl)sulfonyl)-N-(3-(3-(3-(1-(2,6-dioxopiperidin-3-yl)-3-methyl-2-oxo-2,3-dihydro-1H-benzo[d]imidazol-4-yl)propoxy)propoxy)propyl)piperazine-1-carboxamide] | > 50 | > 50 |

The remaining lines, values ahead:

| Dmax (MerTK [1]) [%] | Dmax (MerTK [2]) [%] | Compound |
| --- | --- | --- |
| > 50 | > 50 | CCCCNc1ncc(-c2ccc(CN3CCN(CCOCCOCCOCCOCCNc4cccc5c4C(=O)N(C4CCC(=O)NC4=O)C5=O)CC3)cn2)c(N[C@H]2CC[C@H](O)CC2)n1 (stereo partly drawn) [I-25, 4-[15-[4-([6-[2-(Butylamino)-4-[[trans-4-hydroxycyclohexyl]amino]pyrimidin-5-yl]pyridin-3-yl]methyl)piperazin-1-yl]-4,7,10,13-tetraoxa-1-azapentadecan-1-yl]-2-(2,6-dioxopiperidin-3-yl)-2,3-dihydro-1H-isoindole-1,3-dione] |
| > 50 | > 50 | Cc1ccc(CNc2ncc3c(-c4ccc(CN5CCN(CCOCCOCCOCCOCCNc6cccc7c6C(=O)N(C6CCC(=O)NC6=O)C7=O)CC5)cc4)cn([C@H]4CC[C@H](O)CC4)c3n2)cc1 (stereo partly drawn) [I-26, 2-(2,6-Dioxopiperidin-3-yl)-4-[15-(4-[[4-(2-[[(4-methylphenyl)methyl]amino]-7-[trans-4-hydroxycyclohexyl]-7H-pyrrolo[2,3-d]pyrimidin-5-yl)phenyl]methyl]piperazin-1-yl)-4,7,10,13-tetraoxa-1-azapentadecan-1-yl]-2,3-dihydro-1H-isoindole-1,3-dione formate] |
| > 50 | > 50 | CCCCNc1ncc2c(-c3ccc(CN4CCN(CCOCCOCCOCCOCCNc5cccc6c5n(C)c(=O)n6C5CCC(=O)NC5=O)CC4)cc3)nn([C@H]3CC[C@H](O)CC3)c2n1 (stereo partly drawn) [I-37, trans-3-(4-[15-[4-([4-[6-(butylamino)-1-[4-hydroxycyclohexyl]-1H-pyrazolo[3,4-d]pyrimidin-3-yl]phenyl]methyl)piperazin-1-yl]-4,7,10,13-tetraoxa-1-azapentadecan-1-yl]-3-methyl-2-oxo-2,3-dihydro-1H-1,3-benzodiazol-1-yl)piperidine-2,6-dione] |

Reference: patent US20260042762A1 (Kymera Therapeutics, Inc., priority 2018, published 2026)
